Patent US4618612A (Medosan Industrie Biochimiche Riunite S.p.A., priority 1983, dated 1986)

Tests used:
[1] = test system: rat platelet-rich plasma (ADP-induced platelet aggregation); experiment: Anti-platelet aggregation activity in vitro (Born's method), rat platelet-rich plasma, ADP-induced; type: cell-based
Method: Preparations (A), (B), (C), (D), (E) and (F) were administered "in vivo" orally and/or parenterally in 0.5% carboxymethylcellulose suspensions in physiological saline at neutral pH. When tested "in vitro", they were finely dispersed in neutral pH physiological saline.
This was studied "in vitro" following Born's method (Born G. W. R., Nature, 194, 937 (1962)) and inducing platelet aggregation with ADP.
Platelet-rich plasma was obtained by centrifugation for 10 minutes at 2,000 rpm of 9 parts rat blood to 1 part 3.13% sodium citrate solution. In performing the aggregation test, 0.2 ml of platelet rich plasm was mixed with a 0.9% NaCl solution to which the test substance was added to a final volume of 0.6 ml; the resulting mixture was incubated at 27° C. for 3 minutes. After inducement with ADP, aggregation was measured continuously with an Elvi 840 Aggregometer (Elvi Logos-Milan) to follow its course. The anti-aggregant effects were determined from the difference in the light transmission of the sample with respect to an ADP control.
Table I reports the platelet aggregation inhibition using different doses of the test compounds at a constant ADP concentration.

[2] = test system: human platelet aggregation (PRP); experiment: Human platelet aggregation in vitro induced by ADP, adrenalin, collagen or arachidonate; type: cell-based
Method: Blood samples (20 ml) were obtained by venal puncture of the antecubital fossa using plastic syringes containing trisodium citrate as anticoagulant (final concentration 0.19% w/v). Platelet rich plasma (PRP) was harvested after slow centrifugation at 170 g for 12 min. and 0.2 ml aliquots were dispensed into plastic cuvettes and stored at room temperature throughout the experiment.
Aliquots of 0.2 ml PRP from each sample were treated with ADP, adrenalin, collagen or arachidonate, until the threshold concentrations of these aggregating agents had been reached. The threshold concentration is defined as the minimum whcih will produce irreversible aggregation. Once established, the threshold concentration was used to challenge test samples of each of the 2 test compounds or vehicle (DMSO) which had been incubated for 1 min. at 37 C. in the holding cell of the agregometer, prior to addition of the aggregating agent.
This was reported as the final concentration in the PRP after addition of 2.5-10 ul of test substance.

[3] = test system: carragenin-induced edema; experiment: Carragenin-induced edema test (Winter); type: in vivo, rat
Method: This effect was measured with an experimental model reproducing acute inflammation in rats: the carragenin-induced edema test according to C.

[4] = in vivo; conditions: mouse, mice
[5] = in vivo; conditions: rat, rats
[6] = test system: gastric mucosa; experiment: Gastric tolerance (ulcerogenic activity); type: in vivo, male Wistar rats; conditions: 4 days; for Mean Severity: scale 0-5
Method: This was studied by conducting tests of ulcerogenic activity in male Wistar rats, weighing 180 g on the average, in groups of 10 animals each. Three doses of each substance were given, and one group of animals was treated with vehicle only in a volume of 10 ml/kg bodyweight. Each dose was given orally for four consecutive days; on the fifth day, the rats were killed and autopsied. The ulcerogenic effect was assessed according to the following scale:
(1) each hemorrhage point ≥1 mm was evaluated as 1 lesion
(2) hemorrhage points smaller than 1 mm were counted as follows:
(b) from 1 to 19:2 lesions
(c) from 1 to 29:3 lesions
(2) gastric mucosa irritation: 1
(3) hemorrahge points <1 mm: 2
(4) hemorrhage points between 1 and 3 mm: 3
(5) hemorrhage points >3 mm: 4
This scale was used to calculate the following gastric damage index: [formula]

[7] = ADP 2 μmol/l, dose 1 V/ml (Table II)
[8] = ADP 5 μmol/l, dose 1 V/ml (Table II)
[9] = ADP 7.08 μmol/l, dose 1 /ml (Table I)
[10] = ADP 7.08 μmol/l, dose 5 /ml (Table I)

Compound	% Inhibition [1, 7]	% Inhibition [1, 8]	% Edema Inhibition ([3]; I.P., 10 mg/kg, 3 h)	% Edema Inhibition ([3]; I.P., 10 mg/kg, 6 h)	% Edema Inhibition ([3]; I.P., 10 mg/kg, 24 h)	% Edema Inhibition ([3]; I.P., 50 mg/kg, 3 h)	% Edema Inhibition ([3]; I.P., 50 mg/kg, 6 h)	% Edema Inhibition ([3]; I.P., 50 mg/kg, 24 h)	% Edema Inhibition ([3]; I.P., 100 mg/kg, 3 h)	% Edema Inhibition ([3]; I.P., 100 mg/kg, 6 h)	% Edema Inhibition ([3]; I.P., 100 mg/kg, 24 h)	% Edema Inhibition ([3]; OS, 10 mg/kg, 3 h)	% Edema Inhibition ([3]; OS, 10 mg/kg, 6 h)	% Edema Inhibition ([3]; OS, 10 mg/kg, 24 h)	% Edema Inhibition ([3]; OS, 50 mg/kg, 3 h)	% Edema Inhibition ([3]; OS, 50 mg/kg, 6 h)	% Edema Inhibition ([3]; OS, 50 mg/kg, 24 h)	% Edema Inhibition ([3]; OS, 100 mg/kg, 3 h)	% Edema Inhibition ([3]; OS, 100 mg/kg, 6 h)	% Edema Inhibition ([3]; OS, 100 mg/kg, 24 h)	further results
1-Methyl-5-p-methylbenzoylpyrrol-2-acetate of 7-(3-oxypropyl)theophylline [(C)]	36%	27%	38,0%	36,2%	0,0%	53,1%	50,0%	2,0%	69,5%	62,0%	10,0%	40,2%	34,0%	0,0%	59,0%	57,0%	22,2%	70,0%	66,1%	31,0%	% Inhibition [1, 9]: 22%; % Inhibition ([1]; ADP 7.08 μmol/l, dose 2,5 /ml (Table I)): 75%; % Inhibition [1, 10]: 90%; Minimum Effective Concentration (Final in PRP) ([2]; ADP, volunteer 1 (person delta for (A), person for (C))): 100 µM; Minimum Effective Concentration (Final in PRP) ([2]; ADP, volunteer 2 (donor gamma)): 100 µM; Minimum Effective Concentration (Final in PRP) ([2]; ADP, volunteer 3 (person alpha for (A), person for (C))): 250 µM; Minimum Effective Concentration (Final in PRP) ([2]; Adrenalin, volunteer 1): 100 µM; Minimum Effective Concentration (Final in PRP) ([2]; Adrenalin, volunteer 2 (donor gamma)): 0.25 µM; Minimum Effective Concentration (Final in PRP) ([2]; Adrenalin, volunteer 3): 100 µM; Minimum Effective Concentration (Final in PRP) ([2]; Arachidonate, volunteer 1): 400 µM; Minimum Effective Concentration (Final in PRP) ([2]; Arachidonate, volunteer 2 (donor gamma)): 10 µM; Minimum Effective Concentration (Final in PRP) ([2]; Arachidonate, volunteer 3): 10 µM; Minimum Effective Concentration (Final in PRP) ([2]; Collagen, volunteer 1): 350 µM; Minimum Effective Concentration (Final in PRP) ([2]; Collagen, volunteer 2 (donor gamma)): 250 µM; Minimum Effective Concentration (Final in PRP) ([2]; Collagen, volunteer 3): 100 µM
Cn1c(=O)c2c(ncn2CCCOC(=O)Cc2ccc(-n3cccc3)cc2)n(C)c1=O [(D)]	31%	24%	31,8%	32,7%	1,0%	50,1%	45,9%	8,6%	67,0%	65,4%	9,6%	39,0%	32,0%	0,0%	53,1%	52,0%	11,6%	66,8%	64,1%	16,7%	LD50 ([4]; ip, I.P.): 780 mg/kg; LD50 ([4]; po, OS): 1100 mg/kg; LD50 ([5]; ip, I.P.): 675 mg/kg; LD50 ([5]; po, OS): 1000 mg/kg
Cc1ccc(C(=O)c2ccc(CC(=O)O)n2C)cc1 [Na Tolmetin 2H2 O, 1-methyl-5-p-methylbenzoylpyrrol-2-acetic acid, reference compound]			32,0%	23,0%	0,0%	48,6%	53,2%	0,0%	67,3%	55,1%	0,0%	30,5%	24,0%	0,0%	49,0%	52,0%	0,0%	59,0%	54,2%	0,0%	% incidence 10 ([6]; 50 mg/kg oral): 7 %/10; Mean No. lesions ([6]; 50 mg/kg oral): 2; Mean Severity ([6]; 50 mg/kg oral): 2; % incidence 10 ([6]; 100 mg/kg oral): 10 %/10; Mean No. lesions ([6]; 100 mg/kg oral): 2,5; Mean Severity ([6]; 100 mg/kg oral): 3,5; % incidence 10 ([6]; 200 mg/kg oral): 10 %/10; Mean No. lesions ([6]; 200 mg/kg oral): 3; Mean Severity ([6]; 200 mg/kg oral): 4
CC(=O)Oc1ccccc1C(=O)O [aspirin, reference compound]	29%	19%																			% Inhibition [1, 9]: 15%; % Inhibition [1, 10]: 60%; % Inhibition ([1]; ADP 7.08 μmol/l, dose 10 /ml (Table I)): 100%
